In paper PMC5196434, “Proximity does not contribute to activity enhancement in the glucose oxidase–horseradish peroxidase cascade” (Nature Communications, 2016) one finds Km data, which are given here for 1 substance.

This assay addresses T1, glucose oxidase (GOx) (Aspergillus niger, UniProt P13006).
T1 construct: commercial type VII preparation (Sigma Aldrich), free enzyme
Kind of assay: HRP-coupled ABTS colorimetric assay, absorbance at […] nm. It is filed as biochemical. Particulars: co-substrate oxygen; 20 nM HRP, 2 mM ABTS; PBS pH 7.4; 23 °C; read-out: Michaelis-Menten kinetics (Km).

T1 sequence (P13006 23-605): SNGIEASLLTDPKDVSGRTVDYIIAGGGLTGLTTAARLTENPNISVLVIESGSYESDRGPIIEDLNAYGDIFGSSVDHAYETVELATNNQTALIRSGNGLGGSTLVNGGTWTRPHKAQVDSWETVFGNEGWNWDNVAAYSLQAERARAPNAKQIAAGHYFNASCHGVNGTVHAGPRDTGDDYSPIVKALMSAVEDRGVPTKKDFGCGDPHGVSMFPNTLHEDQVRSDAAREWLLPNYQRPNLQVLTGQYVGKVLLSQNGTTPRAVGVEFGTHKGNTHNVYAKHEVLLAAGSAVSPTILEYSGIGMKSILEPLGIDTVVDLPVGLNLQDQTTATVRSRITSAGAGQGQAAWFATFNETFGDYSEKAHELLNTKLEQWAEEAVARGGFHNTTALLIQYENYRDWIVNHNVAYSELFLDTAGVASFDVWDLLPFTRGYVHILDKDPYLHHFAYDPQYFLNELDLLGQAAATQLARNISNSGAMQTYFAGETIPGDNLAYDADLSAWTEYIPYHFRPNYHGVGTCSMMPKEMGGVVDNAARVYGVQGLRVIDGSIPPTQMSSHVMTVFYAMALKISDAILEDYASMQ

Consider D-glucose, for which the Km is 15 mM.
